For one data set, the system named is M. smegmatis mc^2 155. Briefly: Minimum inhibitory concentration, broth micro dilution. In kind it is cell-based, Mycobacterium smegmatis. To be noted: Mycolicibacterium smegmatis, MC^2155; M. smegmatis growth, 24 h; read-out: MIC50 [μM], bacterial growth.
In data set [1] the target is F-ATP synthase of inverted membrane vesicles (IMV) of M. smegmatis. Briefly: ATP synthesis assay with inverted membrane vesicles. The note with it: read-out: IC50 [μM], effect on ATP synthesis, IMVs of M. smegmatis.
A further data set has as its system M. bovis BCG. Briefly: microbe, parasite or virus in culture. In kind it is cell-based, Mycobacterium bovis. The note with it: for ATP synthesis (luminescence): FIG. 3C; for IC50: Mycobacterium tuberculosis variant bovis BCG, BCG, FIG. 3D.
The subject of another data set is IMVs of M. phlei. The note with it: reported [1], read-out: IC50, ATP synthesis; cited from earlier work.
In data set [2] the test system is extracellular oxygen consumption. Put plainly: Oxygen consumption rate. In kind it is cell-based.
A short description of data set [3]: Mouse liver microsome stability. In kind it is in vitro ADME. The note with it: for half-life: mouse, liver microsomes.

≈ marks a conversion by molar mass, not a printed value. Like-named read-outs stand apart in the source and are kept apart here.

Sequence of F-ATP synthase of inverted membrane vesicles (IMV) of M. smegmatis (A0R203 whole entry): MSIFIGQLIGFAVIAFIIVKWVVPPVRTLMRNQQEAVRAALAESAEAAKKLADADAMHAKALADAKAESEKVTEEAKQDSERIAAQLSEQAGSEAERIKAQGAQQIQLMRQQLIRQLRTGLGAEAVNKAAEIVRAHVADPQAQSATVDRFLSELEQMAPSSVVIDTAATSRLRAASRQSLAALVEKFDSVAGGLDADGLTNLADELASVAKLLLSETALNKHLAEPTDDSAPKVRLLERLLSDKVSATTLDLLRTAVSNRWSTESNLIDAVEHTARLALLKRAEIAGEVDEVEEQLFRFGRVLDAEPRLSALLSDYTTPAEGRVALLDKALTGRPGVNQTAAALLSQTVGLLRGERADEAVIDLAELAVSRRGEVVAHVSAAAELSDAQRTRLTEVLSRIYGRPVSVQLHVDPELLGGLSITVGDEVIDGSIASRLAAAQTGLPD
Sequence of F-ATP synthase of inverted membrane vesicles (IMV) of M. smegmatis (A0R1Z9 whole entry, further chain): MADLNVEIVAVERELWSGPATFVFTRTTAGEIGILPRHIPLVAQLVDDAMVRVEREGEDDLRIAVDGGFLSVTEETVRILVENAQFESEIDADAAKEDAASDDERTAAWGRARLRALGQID
Sequence of F-ATP synthase of inverted membrane vesicles (IMV) of M. smegmatis (A0R200 whole entry, further chain): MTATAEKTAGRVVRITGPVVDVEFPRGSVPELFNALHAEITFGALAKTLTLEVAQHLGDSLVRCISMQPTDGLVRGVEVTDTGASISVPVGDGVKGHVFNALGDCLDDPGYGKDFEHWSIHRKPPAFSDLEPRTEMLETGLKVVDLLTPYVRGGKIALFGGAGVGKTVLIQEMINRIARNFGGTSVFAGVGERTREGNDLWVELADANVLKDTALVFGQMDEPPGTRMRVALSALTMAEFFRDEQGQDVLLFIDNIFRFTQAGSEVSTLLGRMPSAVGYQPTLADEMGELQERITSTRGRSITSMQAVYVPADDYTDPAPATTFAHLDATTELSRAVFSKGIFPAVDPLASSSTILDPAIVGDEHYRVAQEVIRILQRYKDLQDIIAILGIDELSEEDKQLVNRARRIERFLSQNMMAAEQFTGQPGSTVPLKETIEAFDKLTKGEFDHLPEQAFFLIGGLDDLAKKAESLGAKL
Sequence of F-ATP synthase of inverted membrane vesicles (IMV) of M. smegmatis (A0R201 whole entry, further chain): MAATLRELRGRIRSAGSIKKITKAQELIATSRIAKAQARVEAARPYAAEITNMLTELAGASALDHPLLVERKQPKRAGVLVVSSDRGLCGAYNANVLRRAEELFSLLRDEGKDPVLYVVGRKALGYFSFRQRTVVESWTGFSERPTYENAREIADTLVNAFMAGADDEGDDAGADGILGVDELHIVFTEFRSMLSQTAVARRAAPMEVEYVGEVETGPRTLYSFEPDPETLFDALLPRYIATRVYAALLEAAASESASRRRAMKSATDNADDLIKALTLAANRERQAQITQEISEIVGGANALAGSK
Sequence of F-ATP synthase of inverted membrane vesicles (IMV) of M. smegmatis (A0R202 whole entry, further chain): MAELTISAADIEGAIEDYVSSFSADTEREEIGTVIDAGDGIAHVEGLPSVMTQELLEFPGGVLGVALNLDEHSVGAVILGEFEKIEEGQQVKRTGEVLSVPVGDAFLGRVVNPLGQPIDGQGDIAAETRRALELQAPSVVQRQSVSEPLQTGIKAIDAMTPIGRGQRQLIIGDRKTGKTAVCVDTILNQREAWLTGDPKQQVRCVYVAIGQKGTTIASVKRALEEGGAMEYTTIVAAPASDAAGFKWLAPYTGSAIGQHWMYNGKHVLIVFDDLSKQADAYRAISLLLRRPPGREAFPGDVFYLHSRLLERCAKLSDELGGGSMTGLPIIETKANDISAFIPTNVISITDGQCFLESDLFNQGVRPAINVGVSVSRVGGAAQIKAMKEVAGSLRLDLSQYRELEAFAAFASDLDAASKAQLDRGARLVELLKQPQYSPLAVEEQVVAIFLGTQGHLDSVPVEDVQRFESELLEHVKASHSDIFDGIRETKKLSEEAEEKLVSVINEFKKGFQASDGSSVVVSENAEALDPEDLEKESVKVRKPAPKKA

`CCNc1cc(C)nc(Nc2ccc(NC(=O)c3cccc(O)c3)cc2)n1` [3OH U Et, N-(4-((4-(ethylamino)-6-methylpyrimidin-2-yl)amino)phenyl)-3-hydroxybenzamide] registered a melting point of 283 to 285 °C. In addition, in the data set on M. smegmatis mc^2 155, the MIC50 came to 79.6 ± 9.13 µM (≈ 28.9 µg/mL). Also, the IC50 in data set [1] was found to be 1.16 ± 0.09 µM.

Take `CCNc1cc(C)nc(Nc2ccc(NC(=O)c3ccc(C)cc3)cc2)n1` [4Me U Et, N-(4-((4-(ethylamino)-6-methylpyrimidin-2-yl)amino)phenyl)-4-methylbenzamide]: the melting point lay in the range of 297 to 300 °C. In addition, the MIC50 in the data set with M. smegmatis mc^2 155 came to 31.8 ± 7.8 µM (≈ 11.5 µg/mL). Also, the half-inhibitory concentration (IC50) in data set [1] was determined as 0.39 ± 0.02 µM.

Take `CCNc1cc(C)nc(Nc2ccc(NC(=O)c3ccc(OC)cc3)cc2)n1` [4OMe U Et, N-(4-((4-(ethylamino)-6-methylpyrimidin-2-yl)amino)phenyl)-4-methoxybenzamide]: the melting point was in the range of 285 to 288 °C. Besides, the “whole cell ATP synthesis inhibition versus drug free control” value in the data set with M. bovis BCG (analog in combination with BDQ, FIG. 6A, 6B) is on record as “significant increase in the inhibition”. In the data set on M. smegmatis mc^2 155, the MIC50 was 17.3 ± 2.26 µM (≈ 6.52 µg/mL). In addition, the IC50 in data set [1] came out at 0.69 ± 0.06 µM.

For `COc1nc2ccc(Br)cc2cc1[C@@H](c1ccccc1)[C@@](O)(CCN(C)C)c1cccc2ccccc12` [BDQ, 1-(6-bromo-2-methoxy-quinolin-3-yl)-4-dimethylamino-2-naphthalen-1-yl-1-phenyl-butan-2-ol], the “ATP synthesis (luminescence)” value is listed as 6.5×10^3 RLU with M. bovis BCG (12.5 nM BDQ in the presence of 37.5 μM of cpd 6) and 8×10^3 RLU with M. bovis BCG (BDQ alone at 200 nM, drug-free 3.7×10^4 RLU). Further, the half-inhibitory concentration (IC50) in the data set on M. bovis BCG (read-out: IC50 value of BDQ, BDQ alone) is 42 nM; in the data set with M. bovis BCG (read-out: IC50 value of BDQ, in combination with cpd 6), 2.36 nM; with IMVs of M. phlei, 20 to 25 nM. Also, in data set [2] (BDQ alone), the “concentration inhibiting extracellular oxygen consumption” value was “about 500 nM”. The “concentration needed for similar inhibition of oxygen consumption” value in data set [2] (BDQ in combination with 40 μM of cpd 6) was 50 nm.

Compound `Cc1cc(NCCO)nc(Nc2ccc(NC(=O)c3cccc(Br)c3)cc2)n1` [Br EtOH] gave a melting point of 237 to 241 °C. Also, the MIC50 with M. smegmatis mc^2 155 was 19 ± 1.5 µM (≈ 8.41 µg/mL). Moreover, the half-inhibitory concentration (IC50) in data set [1] turned out to be 0.42 ± 0.03 µM.

For `CCOC(=O)CNc1cc(C)nc(Nc2ccc(NC(=O)c3cccc(Br)c3)cc2)n1` [Br Gly, ethyl (2-((4-(3-bromobenzamido)phenyl)amino)-6-methylpyrimidin-4-yl)glycinate], the melting point was above 230 °C. Also, in the data set with M. smegmatis mc^2 155, the MIC50 turned out to be 15.5 ± 1.52 µM (≈ 7.53 µg/mL). Besides, the 50% inhibitory concentration (IC50) in data set [1] was 2.01 ± 0.16 µM.

The compound `CNc1cc(C)nc(Nc2ccc(NC(=O)c3cccc(Br)c3)cc2)n1` [Br Me, 3-bromo-N-(4-((4-methyl-6-(methylamino)pyrimidin-2-yl)amino)phenyl)benzamide] registered a melting point of 301 to 303 °C. Further, in the data set with M. smegmatis mc^2 155, the MIC50 was determined as 12.4 ± 0.56 µM (≈ 5.11 µg/mL). Also, the IC50 in data set [1] is 0.39 ± 0.06 µM.

The compound `CCNc1nc(Nc2ccc(NC(=O)c3cccc(Br)c3)cc2)ncc1C` [Br T Et, 3-bromo-N-(4-((4-(ethylamino)-5-methylpyrimidin-2-yl)amino)phenyl)benzamide] registered a melting point above 230 °C. For the same compound, the MIC50 in the data set with M. smegmatis mc^2 155 came to 12.3 ± 0.73 µM (≈ 5.25 µg/mL). For the same compound, the IC50 in data set [1] was 0.62 ± 0.08 µM.

`CCNc1nc(C)cc(Nc2ccc(NC(=O)c3cccc(Br)c3)cc2)n1` [Br U Et iso (Cpd 6 iso), 3-bromo-N-(4-((2-(ethylamino)-6-methylpyrimidin-4-yl)amino)phenyl)benzamide] returned a melting point of 260 to 264 °C. Further, in the data set with M. smegmatis mc^2 155, the MIC50 was 20.8 ± 1.9 µM (≈ 8.88 µg/mL). Further, the half-inhibitory concentration (IC50) in data set [1] is 0.38 ± 0.03 µM.

`CCNc1ccnc(Nc2ccc(NC(=O)c3cccc(Br)c3)cc2)n1` [Br desMe, 3-bromo-N-(4-((4-(ethylamino)pyrimidin-2-yl)amino)phenyl)benzamide] returned a melting point of 229 to 231 °C. In addition, the MIC50 in the data set on M. smegmatis mc^2 155 was found to be 16.8 ± 2.6 µM (≈ 6.93 µg/mL). In addition, the concentration for half-maximal inhibition (IC50) in data set [1] worked out at 1.03 ± 0.25 µM.

As for `Cc1cc(NC(C)C)nc(Nc2ccc(NC(=O)c3cccc(Br)c3)cc2)n1` [Br iso, 3-bromo-N-(4-((4-(isopropylamino)-6-methylpyrimidin-2-yl)amino)phenyl)benzamide], the melting point was 183 to 185 °C. Also, the MIC50 in the data set with M. smegmatis mc^2 155 worked out at 50.1 ± 4.5 µM (≈ 22.1 µg/mL). The IC50 in data set [1] turned out to be 2.69 ± 0.21 µM.

Compound `CCNc1cc(C)nc(Nc2ccc(NC(=O)c3cccc(Br)c3)cc2)n1` [Cpd 6, 3-bromo-N-(4-((4-(ethylamino)-6-methylpyrimidin-2-yl)amino)phenyl)benzamide] had a microsomal CLint in data set [3] (mouse liver microsomes) of 14.6 µL/min/mg. Further, the half-life in data set [3] (read-out: T½) was 47.5 min; in data set [3] (without NADPH, read-out: T½ w/o NADPH), 68 min.

For `CCNc1nc(Nc2ccc(NC(=O)c3cccc(F)c3)cc2)ncc1C` [F T Et, N-(4-((4-(ethylamino)-5-methylpyrimidin-2-yl)amino)phenyl)-3-fluorobenzamide], the MIC50 in the data set on M. smegmatis mc^2 155 turned out to be 43.5 ± 3.57 µM (≈ 15.9 µg/mL). Further, the IC50 in data set [1] was found to be 0.92 ± 0.04 µM.

For the compound `CCNc1cc(C)nc(Nc2ccc(NC(=O)c3cccc(F)c3)cc2)n1` [F U Et, N-(4-((4-(ethylamino)-6-methylpyrimidin-2-yl)amino)phenyl)-3-fluorobenzamide], the melting point was in the range of 259 to 263 °C. In addition, the MIC50 in the data set on M. smegmatis mc^2 155 is 18.7 ± 1.25 µM (≈ 6.84 µg/mL). Moreover, the 50% inhibitory concentration (IC50) in data set [1] amounted to 0.26 ± 0.05 µM.

On to `CCNc1nc(Nc2ccc(NC(=O)c3ccccc3)cc2)ncc1C` [H T Et, N-(4-((4-(ethylamino)-5-methylpyrimidin-2-yl)amino)phenyl)benzamide], for which the melting point is above 230 °C. Besides, the MIC50 in the data set with M. smegmatis mc^2 155 was 39 ± 1.91 µM (≈ 13.5 µg/mL). In data set [1], the IC50 turned out to be 0.9 ± 0.06 µM.

`CCNc1cc(C)nc(Nc2ccc(NC(=O)c3ccccc3)cc2)n1` [H U Et, N-(4-((4-(ethylamino)-6-methylpyrimidin-2-yl)amino)phenyl)benzamide] had a melting point of 225 to 226 °C. For the same compound, the MIC50 in the data set with M. smegmatis mc^2 155 amounted to 26.9 ± 1.39 µM (≈ 9.36 µg/mL). In addition, in data set [1], the IC50 is 1.65 ± 0.16 µM.

With `CCc1nc2ccc(Cl)cn2c1C(=O)NCc1ccc(N2CCC(c3ccc(OC(F)(F)F)cc3)CC2)cc1` [Q203, 6-chloro-2-ethyl-N-[[4-[4-[4-(trifluoromethoxy)phenyl]piperidin-1-yl]phenyl]methyl]imidazo[1,2-a]pyridine-3-carboxamide], in the data set on M. bovis BCG (ATP synthesis, FIG. 3E), the “effect of Q203 in the presence of cpd 6” value was “additive effect”. Further, the “concentration for complete inhibition of oxygen consumption” value in data set [2] (Q203 in combination with 40 μM of cpd 6) was determined as 100 nM.

As a reminder, the melting point is the temperature, or range, at which the solid turns liquid. A word on the MIC50: it is an inhibitory concentration at the 50% level, which refers to growth in some studies and to a panel of isolates in others. By IC50 is commonly meant the point on the concentration scale where inhibition reaches its midpoint. What is called microsomal CLint is the rate of metabolic loss divided by the concentration. A high value points to rapid turnover.

Source of the values: patent US11078165B2 (priority 2017, dated 2021).
